From EP4483954A1 (Masarykova Univerzita, priority 2023, dated 2025)

Molecular target: T1, Haspin (h) (Homo sapiens, UniProt Q8TF76)
T1 construct: purchased Eurofins (KinaseProfiler)
T1 sequence (Q8TF76 1-798): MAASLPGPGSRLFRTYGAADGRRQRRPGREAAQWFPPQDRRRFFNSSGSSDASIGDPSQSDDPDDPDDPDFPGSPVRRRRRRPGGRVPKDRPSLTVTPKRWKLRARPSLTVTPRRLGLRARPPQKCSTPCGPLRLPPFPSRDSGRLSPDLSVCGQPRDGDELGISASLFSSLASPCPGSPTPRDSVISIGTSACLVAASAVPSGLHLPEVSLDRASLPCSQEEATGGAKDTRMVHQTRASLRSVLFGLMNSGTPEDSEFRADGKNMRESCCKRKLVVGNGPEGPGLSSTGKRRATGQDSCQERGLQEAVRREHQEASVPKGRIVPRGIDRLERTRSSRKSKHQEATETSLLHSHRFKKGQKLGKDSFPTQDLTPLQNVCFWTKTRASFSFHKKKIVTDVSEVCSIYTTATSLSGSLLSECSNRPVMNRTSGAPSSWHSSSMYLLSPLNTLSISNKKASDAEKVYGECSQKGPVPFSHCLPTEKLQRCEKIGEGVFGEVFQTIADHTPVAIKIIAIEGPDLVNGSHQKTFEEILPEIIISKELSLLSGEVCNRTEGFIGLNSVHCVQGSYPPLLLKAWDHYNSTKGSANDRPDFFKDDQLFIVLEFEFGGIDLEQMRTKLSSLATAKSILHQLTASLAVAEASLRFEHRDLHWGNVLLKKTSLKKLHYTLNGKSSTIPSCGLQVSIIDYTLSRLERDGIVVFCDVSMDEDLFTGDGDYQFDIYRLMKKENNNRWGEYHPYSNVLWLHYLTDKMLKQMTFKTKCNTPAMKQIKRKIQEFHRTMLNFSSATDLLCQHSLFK
Assay: radiometric kinase assay (KinaseProfiler, Eurofins), Haspin
Format: biochemical
Settings: in vitro radiometric kinase assay, tested at 1 nM to 10 000 nM, no pre-incubation; read-out: inhibitory activities (IC50 values) Haspin
Experimental: The compounds were profiled in the radiometric assays (KinaseProfiler, Eurofins).
Briefly, kinases were diluted in the buffer shown below prior to addition to the reaction mix: • CDKL3, TAF1L: 20 mM Tris/HCl pH 8.5, 0.2 mM EDTA, 0.1% β-mercaptoethanol, 0.01% Brij-35, 5% glycerol, 1 mg/ml BSA; • Haspin: 15 mM MOPS, 0.75 mM EDTA, 0.0075% Brij-35, 3.75% Glycerol, 150 mM NaCl, 0.1% β-mercaptoethanol, 1 mg/mLBSA; • CDKL4, CLK2, PIM1, TRB2: […], 1 mM EDTA, 0.01% Brij-35, 5% Glycerol, 0.1% β-mercaptoethanol, 1 mg/mL BSA.
All compounds were prepared to 50x final assay concentration in 100% DMSO. This working stock of the compound was added to the assay well as the first component in the reaction, followed by the remaining components as detailed in the general assay protocols below. There was no pre-incubation step between the compound and the kinase prior to initiation of the reaction.
Haspin (h) was incubated with 8 mM MOPS pH 7.0, 0.2 mM EDTA, 500 µM RARTLSFAEPG (SEQ ID NO. 3), 10 mM magnesium acetate and γ-^33P-ATP (specific activity and concentration as required). The reaction was initiated by the addition of the Mg/ATP mix. After incubation for 40 minutes at room temperature, the reaction was stopped by the addition of phosphoric acid to a concentration of 0.5%. An aliquot of the reaction was then spotted onto a filter and washed four times for 4 minutes in 0.425% phosphoric acid and once in methanol prior to drying and scintillation counting.
Kinase activity data were expressed as the percent remaining kinase activity in tested samples compared to the vehicle (DMSO) reactions. The compounds were tested at the following concentrations: 1 nM, 3 nM, 10 nM, 30 nM, 100 nM, 300 nM, 1000 nM, 3000 nM, and 10 000 nM; IC50 values and curve fits were then obtained.

Structure (SMILES): Cn1cc(-c2ccc3scc(-c4ccnc(N)c4)c3n2)cn1 [Preparative Example 25, 4-(5-(1-methyl-1H-pyrazol-4-yl)thieno[3,2-b]pyridin-3-yl)pyridin-2-amine]
- IC50: 20 to 99 nM

Structure (SMILES): Cn1ccc(CNc2ccc3scc(-c4ccncc4)c3n2)n1 [Preparative Example 108, N-((1-methyl-1H-pyrazol-3-yl)methyl)-3-(pyridin-4-yl)thieno[3,2-b]pyridin-5-amine]
- IC50: 3000 to 10000 nM

Structure (SMILES): c1cnnc(Nc2ccc3scc(-c4ccncc4)c3n2)c1 [Preparative Example 113, N-(pyridazin-3-yl)-3-(pyridin-4-yl)thieno[3,2-b]pyridin-5-amine]
- IC50: 100 to 499 nM

Structure (SMILES): CC(C)(C)OC(=O)n1cc(Nc2ccc3scc(-c4ccc5ncnn5c4)c3n2)cn1 [Preparative Example 133, tert-butyl 4-((3-([1,2,4]triazolo[1,5-a]pyridin-6-yl)thieno[3,2-b]pyridin-5-yl)amino)-1H-pyrazole-1-carboxylate]
- IC50: 3000 to 10000 nM

Structure (SMILES): Cc1cc(-c2ccn(C)n2)nc2c(-c3ccncc3)csc12 [Preparative Example 158, 7-methyl-5-(1-methyl-1H-pyrazol-3-yl)-3-(pyridin-4-yl)thieno[3,2-b]pyridine]
- IC50: 100 to 499 nM

Structure (SMILES): c1cc(-c2csc3ccc(OCC4CNCCO4)nc23)ccn1 (centres unmarked) [Preparative Example 118, 2-(((3-(pyridin-4-yl)thieno[3,2-b]pyridin-5-yl)oxy)methyl)-morpholine]
- IC50: 100 to 499 nM

Structure (SMILES): Cn1nc(Nc2ccc3scc(-c4ccncc4)c3n2)cc1NC(=O)OC(C)(C)C [Preparative Example 103, tert-butyl (1-methyl-3-((3-(pyridin-4-yl)thieno[3,2-b]pyridin-5-yl)-amino)-1H-pyrazol-5-yl)carbamate]
- IC50: 3000 to 10000 nM

Structure (SMILES): c1cc(-c2csc3ccc(Nc4cn[nH]c4)nc23)ccn1 [Preparative Example 98, N-(1H-pyrazol-4-yl)-3-(pyridin-4-yl)thieno[3,2-b]pyridin-5-amine]
- IC50: 20 to 99 nM

Structure (SMILES): c1cc(-c2ccc3scc(-c4ccc5ncnn5c4)c3n2)ccn1 [Preparative Example 132, 3-([1,2,4]triazolo[1,5-a]pyridin-6-yl)-5-(pyridin-4-yl)thieno[3,2-b]pyridine]
- IC50: 20 to 99 nM

Structure (SMILES): Cn1cc(Nc2ccc3scc(-c4ccncc4)c3n2)cn1 [Preparative Example 97, N-(1-methyl-1H-pyrazol-4-yl)-3-(pyridin-4-yl)thieno[3,2-b]pyridin-5-amine]
- IC50: 100 to 499 nM

Structure (SMILES): Cc1ccc(S(=O)(=O)n2ccc3c(-c4csc5ccc(-c6cnn(C)c6)nc45)ccnc32)cc1 [Preparative Example 44, 5-(1-methyl-1H-pyrazol-4-yl)-3-(1-tosyl-1H-pyrrolo[2,3-b]pyridin-4-yl)thieno[3,2-b]pyridine]
- IC50: 3000 to 10000 nM

Structure (SMILES): Cn1cc(-c2ccc3scc(-c4ccc5nccnc5c4)c3n2)cn1 [Preparative Example 49, 5-(1-methyl-1H-pyrazol-4-yl)-3-(quinoxalin-6-yl)thieno[3,2-b]pyridine]
- IC50: 20 to 99 nM

Structure (SMILES): Cn1nc(Nc2ccc3scc(-c4ccncc4)c3n2)cc1N [Preparative Example 104, 1-methyl-N3-(3-(pyridin-4-yl)thieno[3,2-b]pyridin-5-yl)-1H-pyrazole-3,5-diamine]
- IC50: 500 to 3000 nM

Structure (SMILES): CC(C)(C)n1ccc(-c2ccc3scc(-c4ccncc4)c3n2)n1 [Preparative Example 80, 5-(1-(tert-butyl)-1H-pyrazol-3-yl)-3-(pyridin-4-yl)thieno[3,2-b]pyridine]
- IC50: 3000 to 10000 nM

Structure (SMILES): CCOC(=O)c1cc(Nc2ccc3scc(-c4ccncc4)c3n2)nn1C [Preparative Example 105, Ethyl 1-methyl-3-((3-(pyridin-4-yl)thieno[3,2-b]pyridin-5-yl)amino)-1H-pyrazole-5-carboxylate]
- IC50: 3000 to 10000 nM

Structure (SMILES): c1ccc(Cn2ccc(-c3ccc4scc(-c5ccncc5)c4n3)n2)cc1 [Preparative Example 89, 5-(1-benzyl-1H-pyrazol-3-yl)-3-(pyridin-4-yl)thieno[3,2-b]pyridine]
- IC50: 500 to 3000 nM

Structure (SMILES): Cn1cc(-c2ccc3scc(-c4ccc(N5CCOCC5)nc4)c3n2)cn1 [Preparative Example 42, 4-(5-(5-(1-methyl-1H-pyrazol-4-yl)thieno[3,2-b]-pyridin-3-yl)pyridin-2-yl)morpholine]
- IC50: 500 to 3000 nM

Structure (SMILES): Cn1ncnc1-c1ccc2scc(-c3ccncc3)c2n1 [Preparative Example 96, 5-(1-methyl-1H-1,2,4-triazol-5-yl)-3-(pyridin-4-yl)thieno[3,2-b]pyridine]
- IC50: 3000 to 10000 nM

Structure (SMILES): Cn1cc(-c2ccc3scc(-c4cnc5ccnn5c4)c3n2)cn1 [Preparative Example 55, 5-(1-methyl-1H-pyrazol-4-yl)-3-(pyrazolo[1,5-a]-pyrimidin-6-yl)thieno[3,2-b]pyridine]
- IC50: 100 to 499 nM

Structure (SMILES): CCOC(=O)c1cn(C)nc1Nc1ccc2scc(-c3ccncc3)c2n1 [Preparative Example 107, Ethyl 1-methyl-3-((3-(pyridin-4-yl)thieno[3,2-b]pyridin-5-yl)amino)-1H-pyrazole-4-carboxylate]
- IC50: 3000 to 10000 nM

Structure (SMILES): Cn1cc(-c2ccc3scc(-c4ccc(C#N)cc4)c3n2)cn1 [Preparative Example 4, 4-(5-(1-methyl-1H-pyrazol-4-yl)thieno[3.2-b]pyridin-3-yl)benzonitrile]
- IC50: 100 to 499 nM

Structure (SMILES): c1cncc(-c2ccc3scc(-c4ccc5ncnn5c4)c3n2)c1 [Preparative Example 131, 3-([1,2,4]triazolo[1,5-a]pyridin-6-yl)-5-(pyridin-3-yl)thieno[3,2-b]pyridine]
- IC50: 100 to 499 nM

Structure (SMILES): c1ccc(-n2ccc(-c3ccc4scc(-c5ccncc5)c4n3)n2)cc1 [Preparative Example 88, 5-(1-phenyl-1H-pyrazol-3-yl)-3-(pyridin-4-yl)thieno[3,2-b]pyridine]
- IC50: 500 to 3000 nM

Structure (SMILES): CN(c1ccc2scc(-c3ccncc3)c2n1)c1ccn(C)n1 [Preparative Example 100, N-methyl-N-(1-methyl-1H-pyrazol-3-yl)-3-(pyridin-4-yl)thieno[3,2-b]pyridin-5-amine]
- IC50: 500 to 3000 nM

Structure (SMILES): CC(C)(C)OC(=O)N1CCO[C@H](COc2ccc3scc(-c4ccncc4)c3n2)C1 [Preparative Example 117, tert-butyl (S)-2-(((3-(pyridin-4-yl)thieno[3,2-b]pyridin-5-yl)oxy)-methyl)morpholine-4-carboxylate]
- IC50: 3000 to 10000 nM

Structure (SMILES): Cn1ccc(Sc2ccc3scc(-c4ccncc4)c3n2)n1
- IC50: 500 to 3000 nM

Structure (SMILES): c1cnc2c(-c3ccc4scc(-c5ccncc5)c4n3)cnn2c1 [Preparative Example 115, 5-(pyrazolo[1,5-a]pyrimidin-3-yl)-3-(pyridin-4-yl)thieno[3,2-b]pyridine]
- IC50: 500 to 3000 nM

Structure (SMILES): Cn1ccc(Oc2ccc3scc(-c4ccncc4)c3n2)n1 [Preparative Example 110, 5-((1-methyl-1H-pyrazol-3-yl)oxy)-3-(pyridin-4-yl)thieno[3,2-b]pyridine]
- IC50: 100 to 499 nM

Structure (SMILES): Cn1cc(C#N)c(Nc2ccc3scc(-c4ccns4)c3n2)n1 [Preparative Example 120, 3-((3-(isothiazol-5-yl)thieno[3,2-b]pyridin-5-yl)amino)-1-methyl-1H-pyrazole-4-carbonitrile]
- IC50: 20 to 99 nM

Structure (SMILES): Cn1cc(-c2ccc3scc(-c4cncnc4)c3n2)cn1 [Preparative Example 38, 5-(1-methyl-1H-pyrazol-4-yl)-3-(pyrimidin-5-yl)thieno[3,2-b]pyridine]
- IC50: 100 to 499 nM

Structure (SMILES): Cn1cc(-c2ccc3scc(-c4ccc5ncncc5c4)c3n2)cn1 [Preparative Example 47, 5-(1-methyl-1H-pyrazol-4-yl)-3-(quinazolin-6-yl)thieno[3,2-b]pyridine]
- IC50: 100 to 499 nM

Structure (SMILES): c1cnc(-c2ccc3scc(-c4ccncc4)c3n2)nc1 [Preparative Example 112, 3-(pyridin-4-yl)-5-(pyrimidin-2-yl)thieno[3,2-b]pyridine]
- IC50: 3000 to 10000 nM
